Structures can show the parent of a compound that is named as a salt. Where two headings read alike, the source gives them in different places.
How the values were obtained:
ML2 = assay: Secondary dose-response HTS, Cell Titer Glo; format: cell-based, human; conditions: secondary high-throughput screen, ML-2; for EC50: read-out: average effective concentration, ML-2
MOLM-13 = assay: Secondary dose-response HTS, Cell Titer Glo; format: cell-based, human; conditions: MOLM-13
CMS = assay: Secondary dose-response HTS, Cell Titer Glo; format: cell-based, human
CHRF288-11 = assay: Secondary dose-response HTS, Cell Titer Glo; format: cell-based, human
CMK = assay: Secondary dose-response HTS, Cell Titer Glo; format: cell-based, human; conditions: CMK
U937 = assay: Secondary dose-response HTS, Cell Titer Glo; format: cell-based, human
MV4-11 [1] = assay: Secondary dose-response HTS, Cell Titer Glo; format: cell-based, human; conditions: MV4-11
M07e = assay: cells; design: species or system AML cell lines (8); Secondary HTS, 10-point dose-response in triplicate, Cell Titer Glo viability, four-parameter fit EC50; conditions: M-07e, 72 h, read-out: M07e
MV4-11 [2] = assay: cells; design: species or system AML cell lines (8); Secondary HTS, 10-point dose-response in triplicate, Cell Titer Glo viability, four-parameter fit EC50; conditions: Homo sapiens, MV4-11, 72 h, read-out: MV4-11
[3] = secondary high-throughput screen, read-out: average effective concentration, MOLM-13
[4] = secondary high-throughput screen, CMS, read-out: average effective concentration, CMS
[5] = secondary high-throughput screen, CHRF288-11, read-out: average effective concentration, CHRF288-11
[6] = secondary high-throughput screen, read-out: average effective concentration, CMK
[7] = secondary high-throughput screen, U937
[8] = secondary high-throughput screen, read-out: average effective concentration, MV4-11
[9] = secondary high-throughput screen
[10] = secondary high-throughput screen, CMS
[11] = secondary high-throughput screen, CHRF288-11
[12] = Homo sapiens, secondary high-throughput screen, read-out: average effective concentration, MOLM-13
[13] = Homo sapiens, HTS, secondary high-throughput screen, CMS, read-out: average effective concentration, CMS
[14] = Homo sapiens, HTS, secondary high-throughput screen, CHRF288-11, read-out: average effective concentration, CHRF288-11
[15] = Homo sapiens, secondary high-throughput screen, read-out: average effective concentration, CMK
[16] = Homo sapiens, U-937, secondary high-throughput screen, U937, read-out: average effective concentration, U937
[17] = Homo sapiens, secondary high-throughput screen, read-out: average effective concentration, MV4-11
[18] = Homo sapiens, HTS, read-out: average effective concentration, CMS
[19] = Homo sapiens, read-out: average effective concentration, CMK
[20] = secondary high-throughput screen, U937, read-out: average effective concentration, U937

| Compound | EC50 (ML2; Homo sapiens) [nM] | EC50 (MOLM-13; [12]) [nM] | EC50 (M07e) [nM] | EC50 (CMS; [13]) [nM] | EC50 (CHRF288-11; [14]) [nM] | EC50 (CMK; [15]) [nM] | EC50 (U937; [16]) [nM] | EC50 (MV4-11 [1]; [17]) [nM] | further results |
| --- | --- | --- | --- | --- | --- | --- | --- | --- | --- |
| C[C@H](Oc1cc(-c2cnn(C3CCNCC3)c2)cnc1N)c1c(Cl)ccc(F)c1Cl [(S)-CRIZOTINIB] | – | – | – | – | – | – | – | – | EC50 (ML2): 5000 nM; EC50 (MOLM-13; [3]): 3900 nM; EC50 (CMS; [4]): 8300 nM; EC50 (CHRF288-11; [5]): 7800 nM; EC50 (CMK; [6]): 4200 nM; average effective concentration, U937 (U937; [7]): Inactive; EC50 (MV4-11 [1]; [8]): 3900 nM |
| O=C(O)CC([S-])C(=O)O.[Au+] (stereo not shown) [AUROTHIOMALATE] | – | – | – | – | – | – | – | – | average effective concentration, MOLM-13 (MOLM-13; [9]): Inactive; average effective concentration, CMS (CMS; [10]): Inactive; average effective concentration, CHRF288-11 (CHRF288-11; [11]): Inactive; average effective concentration, CMK (CMK; [9]): Inactive; average effective concentration, U937 (U937; [7]): Inactive; average effective concentration, MV4-11 (MV4-11 [1]; [9]): Inactive |
| NC(=O)Nc1cc(-c2cccc(F)c2)sc1C(=O)N[C@H]1CCCNC1 [AZD7762] | 26 | > 10000 | > 10000 | 680 | 110 | 45 | 63 | 1 | – |
| COc1c(C)cnc(Cn2cnc3c(Cl)nc(N)nc32)c1C [BIIB021] | 83 | 55 | > 10000 | 110 | 91 | 67 | 30 | 56 | – |
| Nc1cc(C(F)(F)F)c(-c2cc(N3CCOCC3)nc(N3CCOCC3)n2)cn1 [BUPARLISIB] | 1400 | 1500 | > 10000 | – | 5700 | – | 3000 | 1800 | EC50 (CMS; [18]): 1600 nM; EC50 (CMK; [19]): 4100 nM |
| COCc1c(C(C)C)nc(C(C)C)c(/C=C/[C@@H](O)C[C@@H](O)CC(=O)O)c1-c1ccc(F)cc1 [CERIVASTATIN] | 1600 | 890 | > 10000 | 6800 | 49 | 160 | 2300 | 340 | – |
| C=C1C(=O)O[C@@H]2C[C@@]3(C)CCCC(=C)[C@@H]3C[C@H]12 [ISOHELENIN] | – | – | – | – | – | – | – | – | EC50 (ML2): 6600 nM; EC50 (MOLM-13; [3]): 5900 nM; EC50 (CMS; [4]): 5400 nM; EC50 (CHRF288-11; [5]): 6700 nM; EC50 (CMK; [6]): 5200 nM; EC50 (U937; [20]): 8200 nM; average effective concentration, MV4-11 (MV4-11 [1]; [9]): Inactive |
| CNC(=O)c1nn(C)c2c1C(C)(C)Cc1cnc(Nc3ccc(N4CCN(C)CC4)cc3)nc1-2 [MILCICLIB] | 5600 | 1 | > 10000 | – | 2200 | – | 5300 | 1 | EC50 (CMS; [18]): 6400 nM; EC50 (CMK; [19]): 29 nM |
| Cn1cc(CNCC2CCN(c3ncc(C(=O)NO)cn3)CC2)c2ccccc21 [Quisinostat, reference compound] | – | 11 | – | – | 9 | – | – | 6 | EC50 (MOLM-13; Homo sapiens, secondary HTS, 72 h, average of triplicate, read-out: EC50 MOLM-13): 10 nM; EC50 (CMS; Homo sapiens, HTS, 72 h, read-out: EC50 CMS): 1 nM; EC50 (CHRF288-11; Homo sapiens, secondary HTS, 72 h, average of triplicate, read-out: EC50 CHRF288-11): 10 nM; EC50 (CMK; Homo sapiens, 72 h, read-out: EC50 CMK): 20 nM; EC50 (CMK; [19]): 18 nM; EC50 (U937; Homo sapiens, U-937, secondary HTS, 72 h, average of triplicate, read-out: EC50 U937): 10 nM; EC50 (MV4-11 [1]; Homo sapiens, secondary HTS, 72 h, average of triplicate, read-out: EC50 MV4-11): 10 nM |
| Cc1cnc(NC(=O)Nc2cc(Br)c(C)cc2OC[C@@H]2CNCCO2)cn1 [RABUSERTIB] | 74 | 400 | > 10000 | 8500 | 2100 | 450 | 3300 | 500 | – |
| C=CCNC1=C2C[C@@H](C)C[C@H](OC)[C@H](O)[C@@H](C)/C=C(\C)[C@H](OC(N)=O)[C@@H](OC)/C=C\C=C(/C)C(=O)NC(=CC1=O)C2=O [TANESPIMYCIN] | 100 | 80 | > 10000 | 180 | 1300 | 280 | 50 | 120 | – |
| O=C(NCC1(c2nc(-c3ccccc3)cs2)CCOCC1)c1cccc(-c2noc(C(F)(F)F)n2)c1 [TMP269] | – | – | – | – | – | – | – | – | average effective concentration, ML-2 (ML2): Inactive; average effective concentration, MOLM-13 (MOLM-13; [9]): Inactive; average effective concentration, CMS (CMS; [10]): Inactive; average effective concentration, CHRF288-11 (CHRF288-11; [11]): Inactive; average effective concentration, CMK (CMK; [9]): Inactive; average effective concentration, U937 (U937; [7]): Inactive; average effective concentration, MV4-11 (MV4-11 [1]; [9]): Inactive |
| CC[C@]1(O)C[C@@H]2CN(CCc3c([nH]c4ccccc34)[C@@](C(=O)OC)(c3cc4c(cc3OC)N(C)[C@H]3[C@@](O)(C(=O)OC)[C@H](OC(C)=O)[C@]5(CC)C=CCN6CC[C@]43[C@@H]65)C2)C1 [VINBLASTINE SULFATE] | 570 | 220 | > 10000 | 340 | 570 | 3800 | 160 | 56 | – |
| COCCn1c2c([n+](Cc3cnccn3)c1C)C(=O)c1ccccc1C2=O [YM-155] | 21 | 10 | > 10000 | 91 | 2300 | 31 | 22 | 20 | – |
| C/C1=C\CC(C)(C)/C=C/C(=O)/C(C)=C/CC1 [ZERUMBONE] | 6900 | 10000 | > 10000 | – | 8600 | – | 10000 | – | EC50 (CMS; [18]): 7300 nM; EC50 (CMK; [19]): 7200 nM; EC50 (MV4-11 [2]): > 10000 nM |
| BLEOMYCIN | – | – | – | – | – | – | – | – | EC50 (MOLM-13; [3]): 6900 nM; average effective concentration, CMS (CMS; [10]): Inactive; average effective concentration, CMK (CMK; [9]): Inactive; average effective concentration, U937 (U937; [7]): Inactive; average effective concentration, MV4-11 (MV4-11 [1]; [9]): Inactive |
| I-BET151 | – | – | – | – | – | – | – | – | EC50 (ML2): 2700 nM; EC50 (MOLM-13; [3]): 650 nM; EC50 (CMS; [4]): 2100 nM; EC50 (CHRF288-11; [5]): 5100 nM; average effective concentration, CMK (CMK; [9]): Inactive; EC50 (U937; [20]): 3200 nM; average effective concentration, MV4-11 (MV4-11 [1]; [9]): Inactive |
| MITHRAMYCIN A | – | – | – | – | – | – | – | – | EC50 (ML2): 230 nM; EC50 (MOLM-13; [3]): 140 nM; EC50 (CMS; [4]): 180 nM; EC50 (CHRF288-11; [5]): 160 nM; EC50 (CMK; [6]): 260 nM; EC50 (U937; [20]): 240 nM; EC50 (MV4-11 [1]; [8]): 53 nM |

— article PMC6522510 (Nature Communications, 2019)
